Measured values: article PMC8623047, “Novel Antioxidants and α-Glycosidase and Protein Tyrosine Phosphatase 1B Inhibitors from an Endophytic Fungus Penicillium brefeldianum F4a” (Journal of Fungi, 2021)

Experiments:
PTP1B = biological target: T1, PTP1B (Homo sapiens, UniProt P18031); test: PTP1B inhibitory assay (p-NPP substrate); assay type: biochemical; details: mean ± SD, n = 3; sample concentration achieving 50% of activity
T1 sequence (P18031 1-435): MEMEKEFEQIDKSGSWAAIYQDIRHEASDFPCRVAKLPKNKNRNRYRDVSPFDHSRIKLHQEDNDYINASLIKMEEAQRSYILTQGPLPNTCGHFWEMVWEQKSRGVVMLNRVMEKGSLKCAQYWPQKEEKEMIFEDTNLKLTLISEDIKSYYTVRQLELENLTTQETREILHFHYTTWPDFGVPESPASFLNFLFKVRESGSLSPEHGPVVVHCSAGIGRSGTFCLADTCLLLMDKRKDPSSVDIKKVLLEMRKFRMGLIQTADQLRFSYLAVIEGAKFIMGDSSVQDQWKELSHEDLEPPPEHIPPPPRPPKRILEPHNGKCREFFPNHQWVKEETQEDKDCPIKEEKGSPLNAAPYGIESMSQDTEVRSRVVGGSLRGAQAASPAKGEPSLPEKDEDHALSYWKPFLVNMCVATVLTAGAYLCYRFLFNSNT
Description: The PTP1B inhibitory activity was established according to the previously reported methods. The reagent para-nitrophenyl phosphate (p-NPP) was used as a substrate for PTP1B. Then, 81 μL enzyme in buffer (pH 7.5), including EDTA (1 mM), Tris-HCl (25 mM), dithiothreitol (DTT) (1 mM), β-mercaptoethanol (2 mM), and 10 μL of sample at various concentrations in DMSO (the blank control used 10 μL of DMSO instead of the sample), was incubated in 96-well plates at 37 °C for 10 min. Then, 4 μL p-NPP (10 mM) in buffer was added and incubated at 37 °C for 30 min. Next, 5 μL of 2 M NaOH solution was added to terminate the reaction. Then, the absorbance was determined at 405 nm wavelength.

[1] = DPPH radical scavenging assay; details: mean ± SD, n = 3; 30 min, 517 nm
Description: The DPPH free radicals scavenging assay was tested according to the previously reported methods. First, 100 μL of sample at different concentrations in ethanol (the blank control used 100 μL of ethanol instead of the sample) was added to 96 wells, followed by 100 μL of 0.15 mM DPPH. […] L-Ascorbic acid was used as the positive control.

[2] = ABTS radical scavenging assay; details: mean ± SD, n = 3; 6 min, 734 nm
Description: The ABTS free radical scavenging assay was tested according to the previously reported methods. […] The mixture was incubated in darkness at room temperature for 12 h before use. […] Then, 100 μL of the sample at various concentrations in ethanol (the blank control used 100 μL of ethanol instead of the sample) was added to 3.0 mL of diluted ABTS^•+ solution and mixed vigorously. […] L-Ascorbic acid was used as the positive control.

[3] = previous studies; cited from earlier work

Question: For `O=C(O)Cc1c[nH]c2ccccc12` [Compound 8, indole-3-acetic acid], which EC50 (PTP1B) is on record?
Answer: 11.7 ± 1.03 µM

Question: What does the source list for `COc1cc(O)cc(C)c1Cc1oc(C)cc1C(=O)O` [Compound 2, peniorcinol B]?
Answer: EC50 (PTP1B): > 50 µM; EC50 [1]: > 100 µM; EC50 [2]: 28.2 ± 2.87 µM

Question: With `O=C1O[C@H]([C@@H](O)CO)C(O)=C1O` [L-Ascorbic acid, reference compound] as the molecule, how does the EC50 [1] read?
Answer: 6.12 ± 0.17 µM

Question: What about the EC50 [2] of the same molecule?
Answer: 18.8 ± 3.39 µM

Question: For `C[C@]1(O)Cc2oc3c(C(=O)O)c(O)c(O)cc3c(=O)c2CO1` [Compound 4, penialidin A], which EC50 (PTP1B) is on record?
Answer: > 50 µM

Question: And the EC50 [1]?
Answer: > 100 µM

Question: And the EC50 [2]?
Answer: 14.5 ± 0.46 µM

Question: What about the “DPPH• scavenging activity IC50” value [3] of the same molecule?
Answer: 156.38 µg/mL

Question: Which EC50 (PTP1B) does the source give for `CC1=Cc2oc3cc(O)c(O)cc3c(=O)c2CO1` [Compound 6, myxotrichin C] here?
Answer: > 50 µM

Question: And the EC50 [1]?
Answer: 30.1 ± 2.83 µM

Question: And the EC50 [2]?
Answer: 15 ± 2.57 µM

Question: With `COc1cc(O)cc(C)c1Cc1oc(C[C@@H](C)O)cc1C(=O)O` [Compound 1, peniorcinol A] as the molecule, how does the EC50 (PTP1B) read?
Answer: > 50 µM

Question: What about the EC50 [1] of the same molecule?
Answer: > 100 µM

Question: What about the EC50 [2] of the same molecule?
Answer: 21.9 ± 1.06 µM

Question: With `C[C@]1(O)Cc2oc3cc(O)c(O)cc3c(=O)c2CO1` [Compound 5, penialidin F] as the molecule, how does the EC50 (PTP1B) read?
Answer: > 50 µM

Question: What about the EC50 [1] of the same molecule?
Answer: 28.4 ± 3.16 µM

Question: What about the EC50 [2] of the same molecule?
Answer: 7.61 ± 0.46 µM

Question: Which EC50 (PTP1B) does the source give for `Cc1cc2nc3c(=O)[nH]c(=O)nc-3n(C[C@H](O)[C@H](O)[C@H](O)CO)c2cc1C` [Compound 7, riboflavin] here?
Answer: 8.87 ± 0.91 µM

Question: With `COc1cc(O)cc(C)c1CC(=O)O` [Compound 9, 2-(4-hydroxy-2-methoxy-6-methylphenyl) acetic acid] as the molecule, how does the EC50 (PTP1B) read?
Answer: > 50 µM

Question: What about the EC50 [1] of the same molecule?
Answer: > 100 µM

Question: What about the EC50 [2] of the same molecule?
Answer: 30 ± 4.17 µM

Question: Which EC50 (PTP1B) does the source give for `C=C1C=CC(=O)[C@]1(CO)Cc1c(C)cc(O)cc1OC` [Compound 3, peniorcinol C] here?
Answer: > 50 µM

Question: And the EC50 [1]?
Answer: > 100 µM

Question: And the EC50 [2]?
Answer: 32.7 ± 3.86 µM
